Test results published in article PMC10134573 (Biochemistry, 2022).

T1: CheA WT (Tm CheA) (Thermotoga maritima, UniProt Q56310)
T1 sequence (Q56310 1-671): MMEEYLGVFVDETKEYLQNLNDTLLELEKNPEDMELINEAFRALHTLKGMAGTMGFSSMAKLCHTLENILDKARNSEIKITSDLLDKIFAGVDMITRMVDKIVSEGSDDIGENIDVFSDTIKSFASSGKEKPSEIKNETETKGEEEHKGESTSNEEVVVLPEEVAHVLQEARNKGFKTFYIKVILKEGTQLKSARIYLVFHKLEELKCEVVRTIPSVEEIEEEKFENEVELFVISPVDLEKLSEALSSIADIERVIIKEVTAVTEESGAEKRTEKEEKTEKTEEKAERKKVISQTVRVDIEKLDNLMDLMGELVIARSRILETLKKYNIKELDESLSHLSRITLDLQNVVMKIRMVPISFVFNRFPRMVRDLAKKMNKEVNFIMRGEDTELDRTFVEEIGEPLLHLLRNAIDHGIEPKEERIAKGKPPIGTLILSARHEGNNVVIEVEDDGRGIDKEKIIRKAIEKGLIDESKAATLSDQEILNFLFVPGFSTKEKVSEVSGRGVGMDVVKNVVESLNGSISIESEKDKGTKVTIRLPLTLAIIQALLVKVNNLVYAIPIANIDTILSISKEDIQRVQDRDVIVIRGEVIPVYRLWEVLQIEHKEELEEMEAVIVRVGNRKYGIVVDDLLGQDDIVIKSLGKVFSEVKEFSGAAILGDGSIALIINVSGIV


Legend:
CheA WT (Tm CheA) = target: T1, CheA WT (Tm CheA); assay: TNP-ATP displacement, fluorescence; type: binding
SEC + other: SAXS = target: the molecule itself; assay: SEC + other: SAXS

IC50 (CheA WT (Tm CheA)) [µM]	Molecule	stoichiometry N (SEC + other: SAXS)
405 ± 21	Nc1ncnc2c1ncn2[C@@H]1O[C@H](COP(=O)(O)OP(=O)(O)O)[C@@H](O)[C@H]1O [ADP]	
	Thermotoga maritima CheA WT (enzyme, UniProt Q56310 1-671, looked up) MMEEYLGVFVDETKEYLQNLNDTLLELEKNPEDMELINEAFRALHTLKGMAGTMGFSSMAKLCHTLENILDKARNSEIKITSDLLDKIFAGVDMITRMVDKIVSEGSDDIGENIDVFSDTIKSFASSGKEKPSEIKNETETKGEEEHKGESTSNEEVVVLPEEVAHVLQEARNKGFKTFYIKVILKEGTQLKSARIYLVFHKLEELKCEVVRTIPSVEEIEEEKFENEVELFVISPVDLEKLSEALSSIADIERVIIKEVTAVTEESGAEKRTEKEEKTEKTEEKAERKKVISQTVRVDIEKLDNLMDLMGELVIARSRILETLKKYNIKELDESLSHLSRITLDLQNVVMKIRMVPISFVFNRFPRMVRDLAKKMNKEVNFIMRGEDTELDRTFVEEIGEPLLHLLRNAIDHGIEPKEERIAKGKPPIGTLILSARHEGNNVVIEVEDDGRGIDKEKIIRKAIEKGLIDESKAATLSDQEILNFLFVPGFSTKEKVSEVSGRGVGMDVVKNVVESLNGSISIESEKDKGTKVTIRLPLTLAIIQALLVKVNNLVYAIPIANIDTILSISKEDIQRVQDRDVIVIRGEVIPVYRLWEVLQIEHKEELEEMEAVIVRVGNRKYGIVVDDLLGQDDIVIKSLGKVFSEVKEFSGAAILGDGSIALIINVSGIV	2
